Laboratory results from patent publication US6162610A, “Xanthan-ester and acridan substrates for horseradish peroxidase” (Tropix, Inc., priority 1998, dated 2000).

Tests used:
[1] = molecular target: T1, HRP (Armoracia rusticana, UniProt P00433); assay: Effect of detergents and polymers on chemiluminescent signal from xanthene substrate with HRP; format: biochemical, horseradish; conditions: 5 fmol HRP; for Signal + HRP: 19 min incubation
T1 sequence (P00433 31-338 limits assumed): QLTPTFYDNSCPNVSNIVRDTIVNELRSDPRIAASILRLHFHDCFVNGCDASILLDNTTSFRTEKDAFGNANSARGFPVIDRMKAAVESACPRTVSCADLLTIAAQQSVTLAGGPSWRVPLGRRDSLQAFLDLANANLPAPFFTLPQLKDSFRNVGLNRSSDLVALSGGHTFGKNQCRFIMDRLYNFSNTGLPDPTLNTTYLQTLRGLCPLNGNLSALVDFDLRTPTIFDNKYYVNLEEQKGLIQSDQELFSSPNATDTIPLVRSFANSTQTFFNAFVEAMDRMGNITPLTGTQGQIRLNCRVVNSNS
Protocol: (§1) Detergent was added to the buffer solution to increase the solubility of the assay components. The use of polymeric quaternary amines, neutral detergents and cationic detergents was compared using polyvinylbenzyltributylammonium chloride (Sapphire II, Tropix), Tween-20 (Sigma) and […] (CTAB, Sigma). Luminescence was measured in white opaque microplate wells using a Dynatech ML3000 luminometer. First, background signal was measured after the addition of hydrogen peroxide (10 μL of 3.5 mM stock solution) to 0.12 mL of 1.17 mM xanthene substrate (14) in 0.1 M citrate buffer pH 7.0 containing, 0.42 mg/mL hydroxypropylmethylcellulose and 4-iodophenol (iodophenol concentration was 71.4 μg/mL for the Sapphire II and Tween-20 solutions and 178.6 μg/mL for the CTAB solution) after a 19 minute incubation. HRP, 10 μL containing 5 fmol, was added to each well and the chemiluminescence was measured after a 19 min incubation.

[2] = tested on: HRP; assay: as above; format: biochemical, horseradish; conditions: H2O2, no HRP, 19 minute incubation, citrate buffer pH 7.0
Protocol: as §1

[3] = molecular target: T2, horseradish peroxidase (HRP, Type VIA) (Armoracia rusticana, UniProt P00433); assay: Comparison of Xanthene substrate (14) and Enhanced Chemiluminescence (ECL), HRP dilution series; format: biochemical; conditions: for RLU: Xanthene substrate with 4-phenylphenol, Emerald II, read after 40 minutes; for S/N: Xanthene substrate, 40 minutes
T2 sequence (P00433 31-338 limits assumed): T1 sequence (P00433 31-338 limits assumed)
Protocol: The following conditions were used for the comparison of ECL(a commercially available optimized reagent containing Luminol-an amino-substituted cyclic acylhydrazide) and Xanthene substrate (14). ECL reagents were obtained from Amersham and were used as recommended by the manufacturer. Aliquots of horseradish peroxidase (HRP, Type VIA), 10 μL, containing 0,0.5, 5.0, 50.0, 500.0 and 5000.0 attomoles HRP were then added to 0.13 mL of each reagent formulation. To evaluate Xanthene substrate, hydrogen peroxide (10 μL of a 3.5 mM stock) was added to 10 μL of each HRP dilution and the reaction was initiated by addition of a solution of 0.12 mL of 1.17 mM Xanthene substrate in 0.1 M citrate buffer pH 7.0 containing 1.22 mM 4-phenylphenol, 0.42 mg/mL hydroxypropylmethylcellulose and 0.167 mg/mL Emerald II. The chemiluminescent signal was measured in a Dynatech ML3000 luminometer after 1 minute for ECL and 40 minutes for Xanthene substrate.

[4] = Tween-20, 4-iodophenol 71.4 μg/mL

Q: With O=C(Oc1ccccc1)C1c2ccccc2Oc2cc(O)ccc21 (stereo not shown) [compound 14, 3-Hydroxy-9H-9-xanthene-carboxylic acid, phenyl ester] as the molecule, how does the S/N ([1]; CTAB) read?
A: 1.5

Q: And the “Signal + HRP” value ([1]; CTAB, 4-iodophenol 178.6 μg/mL)?
A: 3.78

Q: And the S/N ([1]; Sapphire II)?
A: 15.4

Q: And the “Signal + HRP” value ([1]; Sapphire II, 4-iodophenol 71.4 μg/mL)?
A: 229.05

Q: And the S/N ([1]; Tween-20)?
A: 1.8

Q: What about the “Signal + HRP” value [1, 4] of the same molecule?
A: 0.0439

Q: And the Background ([2]; CTAB, 4-iodophenol 178.6 μg/mL)?
A: 2.45

Q: And the Background ([2]; Sapphire II (polyvinylbenzyltributylammonium chloride), 4-iodophenol 71.4 μg/mL)?
A: 14.83

Q: What about the Background [2, 4] of the same molecule?
A: 0.0242

Q: What about the RLU ([3]; HRP 0.5 amol) of the same molecule?
A: 14.12 RLU

Q: And the S/N ([3]; HRP 0.5 amol)?
A: 1.11

Q: And the RLU ([3]; HRP 5 amol)?
A: 17.52 RLU

Q: What about the S/N ([3]; HRP 5 amol) of the same molecule?
A: 1.37

Q: And the RLU ([3]; HRP 50 amol)?
A: 63.12 RLU

Q: And the S/N ([3]; HRP 50 amol)?
A: 4.95

Q: What about the RLU ([3]; HRP 500 amol) of the same molecule?
A: 353.31 RLU

Q: And the S/N ([3]; HRP 500 amol)?
A: 27.70

Q: And the RLU ([3]; HRP 5000 amol)?
A: 740.51 RLU

Q: What about the S/N ([3]; HRP 5000 amol) of the same molecule?
A: 58.06
